The source made the active and inactive calls. The rule behind the calls is not given here.
Tests used:
Assay type in all cases: functional
[1] = Antioxidant activity assessed as hydroxyl radical scavenging activity at 2.5 mg/ml preincubated for 20 mins followed by salicylic acid addition measured after 60 mins by fenton reaction method relative to control
[2] = Antioxidant activity assessed as inhibition of superoxide radical generation up to 0.6 mg/ml after 4 mins by pyrogallol autoxidation method relative to control
[3] = Antioxidant activity assessed as DPPH radical scavenging activity up to 0.6 mg/ml after 30 mins by absorbance method relative to control
[4] = Antioxidant activity assessed as ABTS radical scavenging activity at 2.5 mg/ml after 6 mins relative to control
[5] = Antioxidant activity assessed as inhibition of superoxide radical generation at 2.5 mg/ml after 4 mins by pyrogallol autoxidation method relative to control
[6] = Antioxidant activity assessed as inhibition of superoxide radical generation after 4 mins by pyrogallol autoxidation method
[7] = Antioxidant activity assessed as DPPH radical scavenging activity at 2.5 mg/ml after 30 mins by absorbance method relative to control
[8] = Antioxidant activity assessed as hydroxyl radical scavenging activity preincubated for 20 mins followed by salicylic acid addition measured after 60 mins by fenton reaction method relative to control

SMILES	Activity [1] [%]	inhibition [2]	Activity [3]	Activity [4] [%]	inhibition [5] [%]	inhibition [6]	Activity [7] [%]	Activity [8]
O=C1O[C@H]([C@@H](O)CO)C(O)=C1O	94.9	Active	Active	96.8				
OCOC1COC(S)(O[C@@H]2O[C@H](CO)[C@@H](O)[C@H](O)[C@H]2O)C1OCO (stereo not given in full)	76.2			83.3	73.9	Dose-dependent effect	83.9	Dose-dependent effect

Reference: ChEMBL document CHEMBL4219192, “Structural analysis and antioxidant activity of the glycoside from Imperial Chrysanthemum” (Bioorg Med Chem Lett, 2018)
